Reference: PMC5007552, “The hVps34‐SGK3 pathway alleviates sustained PI3K/Akt inhibition by stimulating mTORC1 and tumour growth” (The EMBO Journal, 2016)
Several values for one entry are separate records, joined by “and”; a condition that tells them apart may be missing. Equal values may be shown once.

System: ZR-75-1 cells
Assay: NanoString human kinome mRNA quantification
Assay type: cell-based
Text: Human mRNAs were hybridised to NanoString human kinome and control code sets, then subjected to quantification using NanoString software. […] To permit data compaction, and simple kinome‐wide comparisons, the fold changes are log2 transformed. […] Cell pellets were resuspended at a concentration of ~6,500 cells/μl in RLT buffer (Qiagen). […] For total copy numbers, triplicate normalised count values were averaged, and to calculate fold induction, means were divided by triplicate mean values from matched DMSO controls. P‐values were calculated using unpaired t‐test (GraphPad Prism software) by employing treated and control count data for each kinase mRNA.

NC1(c2ccc(-c3nc4ccn5c(=O)[nH]nc5c4cc3-c3ccccc3)cc2)CCC1 [MK-2206]
Normalised counts HIPK1 (HIPK1 mRNA, single replicates): 558.67 and 555.89 and 631.82
Average normalised counts HIPK2 (HIPK2 mRNA, average of 3 replicates): 697.1
Normalised counts HIPK2 (HIPK2 mRNA, single replicates): 690.47 and 698.36 and 702.47
Average normalised counts HIPK3 (HIPK3 mRNA, average of 3 replicates): 924.78
Normalised counts HIPK3 (HIPK3 mRNA, single replicates): 914.99 and 915.54 and 943.81
Average normalised counts HIPK4 (HIPK4 mRNA, average of 3 replicates): 8.793
Normalised counts HIPK4 (HIPK4 mRNA, single replicates): 13.29 and 6.84 and 6.25
Average normalised counts HSPB8 (HSPB8 mRNA, average of 3 replicates): 703.253
Normalised counts HSPB8 (HSPB8 mRNA, single replicates): 670.48 and 739.19 and 700.09
Average normalised counts HUNK (HUNK mRNA, average of 3 replicates): 120.407
Normalised counts HUNK (HUNK mRNA, single replicates): 115.1 and 122.38 and 123.74
Average normalised counts HUS1 (HUS1 mRNA, average of 3 replicates): 872.423
Normalised counts HUS1 (HUS1 mRNA, single replicates): 841.36 and 886.88 and 889.03
Average normalised counts IGF1R (IGF1R mRNA, average of 3 replicates): 2361.57
Normalised counts IGF1R (IGF1R mRNA, single replicates): 2300.25 and 2376.77 and 2407.7
Average normalised counts IKBKB (IKBKB mRNA, average of 3 replicates): 768.703
Normalised counts IKBKB (IKBKB mRNA, single replicates): 749.55 and 764.38 and 792.18
Average normalised counts IKBKE (IKBKE mRNA, average of 3 replicates): 224.477
Normalised counts IKBKE (IKBKE mRNA, single replicates): 217.95 and 203.13
Average normalised counts ILK (ILK mRNA, average of 3 replicates): 435.073
Normalised counts ILK (ILK mRNA, single replicates): 419.6 and 422.1 and 463.52
Average normalised counts INSR (INSR mRNA, average of 3 replicates): 414.107
Normalised counts INSR (INSR mRNA, single replicates): 395.06 and 455.98 and 391.28
Average normalised counts INSRR (INSRR mRNA, average of 3 replicates): 3.12
Normalised counts INSRR (INSRR mRNA, single replicates): 2.39 and 5.97 and 1
Average normalised counts IRAK1 (IRAK1 mRNA, average of 3 replicates): 1144.48
Normalised counts IRAK1 (IRAK1 mRNA, single replicates): 1168.59 and 1134.47 and 1130.37
Average normalised counts IRAK2 (IRAK2 mRNA, average of 3 replicates): 17.2833
Normalised counts IRAK2 (IRAK2 mRNA, single replicates): 12.38 and 18.13 and 21.34
Average normalised counts IRAK3 (IRAK3 mRNA, average of 3 replicates): 4.617
Normalised counts IRAK3 (IRAK3 mRNA, single replicates): 3.29 and 5.1 and 5.46
Average normalised counts IRAK4 (IRAK4 mRNA, average of 3 replicates): 506.37
Normalised counts IRAK4 (IRAK4 mRNA, single replicates): 495.95 and 488.99 and 534.17
Average normalised counts ITK (ITK mRNA, average of 3 replicates): 1.763
Normalised counts ITK (ITK mRNA, single replicates): 3.29 and 1 (2×)
Average normalised counts JAK1 (JAK1 mRNA, average of 3 replicates): 943.323
Normalised counts JAK1 (JAK1 mRNA, single replicates): 967.71 and 921.63 and 940.63
Average normalised counts JAK2 (JAK2 mRNA, average of 3 replicates): 378.063
Normalised counts JAK2 (JAK2 mRNA, single replicates): 379.61 and 384.74 and 369.84
Average normalised counts JAK3 (JAK3 mRNA, average of 3 replicates): 2.113
Normalised counts JAK3 (JAK3 mRNA, single replicates): 1.48 and 3.37 and 1.49
Average normalised counts KALRN (KALRN mRNA, average of 3 replicates): 1
Normalised counts KALRN (KALRN mRNA, single replicates): 1
Average normalised counts KDR (KDR mRNA, average of 3 replicates): 1.163
Normalised counts KDR (KDR mRNA, single replicates): 1 (2×) and 1.49
Average normalised counts KIAA1804 (KIAA1804 mRNA, average of 3 replicates): 209.647
Normalised counts KIAA1804 (KIAA1804 mRNA, single replicates): 226.9 and 199.7 and 202.34
Average normalised counts KIT (KIT mRNA, average of 3 replicates): 1
Normalised counts KIT (KIT mRNA, single replicates): 1
Average normalised counts KSR1 (KSR1 mRNA, average of 3 replicates): 15.5767
Normalised counts KSR1 (KSR1 mRNA, single replicates): 14.2 and 11.19 and 21.34
Average normalised counts KSR2 (KSR2 mRNA, average of 3 replicates): 58.27
Normalised counts KSR2 (KSR2 mRNA, single replicates): 61.47 and 55.49 and 57.85
Average normalised counts LATS1 (LATS1 mRNA, average of 3 replicates): 1079.17
Normalised counts LATS1 (LATS1 mRNA, single replicates): 1068.6 and 1080.61 and 1088.29
Average normalised counts LATS2 (LATS2 mRNA, average of 3 replicates): 223.537
Normalised counts LATS2 (LATS2 mRNA, single replicates): 222.36 and 229.24 and 219.01
Average normalised counts LCK (LCK mRNA, average of 3 replicates): 1
Normalised counts LCK (LCK mRNA, single replicates): 1
Average normalised counts LIMK1 (LIMK1 mRNA, average of 3 replicates): 487.24
Normalised counts LIMK1 (LIMK1 mRNA, single replicates): 499.59 and 471.62 and 490.51
Average normalised counts LMTK2 (LMTK2 mRNA, average of 3 replicates): 633.213
Normalised counts LMTK2 (LMTK2 mRNA, single replicates): 615.03 and 621.04 and 663.57
Average normalised counts LMTK3 (LMTK3 mRNA, average of 3 replicates): 14.4067
Normalised counts LMTK3 (LMTK3 mRNA, single replicates): 19.66 and 8.58 and 14.98
Average normalised counts LRRK1 (LRRK1 mRNA, average of 3 replicates): 204.153
Normalised counts LRRK1 (LRRK1 mRNA, single replicates): 193.27 and 214.47 and 204.72
Average normalised counts LRRK2 (LRRK2 mRNA, average of 3 replicates): 465.12
Normalised counts LRRK2 (LRRK2 mRNA, single replicates): 461.41 and 439.47 and 494.48
Average normalised counts LTK (LTK mRNA, average of 3 replicates): 1
Normalised counts LTK (LTK mRNA, single replicates): 1
Average normalised counts LYN (LYN mRNA, average of 3 replicates): 10.41
Normalised counts LYN (LYN mRNA, single replicates): 11.48 and 10.32 and 9.43
MAK Normalised counts Average (MAK mRNA, average of 3): 7.77
MAK Normalised counts (single replicates) (MAK mRNA, replicates 1-3): 7.84 and 6.84 and 8.63
MAP2K1 Normalised counts Average (MAP2K1 mRNA, average of 3): 1481.58
MAP2K1 Normalised counts (single replicates) (MAP2K1 mRNA, replicates 1-3): 1469.45 and 1465.46 and 1509.84
MAP2K2 Normalised counts Average (MAP2K2 mRNA, average of 3): 2403.01
MAP2K2 Normalised counts (single replicates) (MAP2K2 mRNA, replicates 1-3): 2394.14 and 2328.31
MAP2K3 Normalised counts Average (MAP2K3 mRNA, average of 3): 410.613
MAP2K3 Normalised counts (single replicates) (MAP2K3 mRNA, replicates 1-3): 415.06 and 378.66 and 438.12
MAP2K4 Normalised counts Average (MAP2K4 mRNA, average of 3): 708.25
MAP2K4 Normalised counts (single replicates) (MAP2K4 mRNA, replicates 1-3): 670.48 and 728.77 and 725.5
MAP2K5 Normalised counts Average (MAP2K5 mRNA, average of 3): 322.173
MAP2K5 Normalised counts (single replicates) (MAP2K5 mRNA, replicates 1-3): 317.8 and 316.98 and 331.74
MAP2K6 Normalised counts Average (MAP2K6 mRNA, average of 3): 279.153
